Data from patent US20200078379A1, “DEFEROXAMINE DERIVATIVES AS MEDICAMENTS” (BIOTECHNOLOGICKY USTAV AV CR, V.V.I., priority 2017, published 2020).
Read-outs that look alike come from different tables or passages of the source.

Assays:
BT474 cells = experiment: crystal violet assay, cellular viability; assay type: cell-based; settings: for IC50: Homo sapiens, BT-474
SK-OV-3 cells = experiment: crystal violet assay, cellular viability; assay type: cell-based; settings: Homo sapiens, SK-OV-3, 48 hours
T47D cells = experiment: AnnexinV/PI cell death assay; assay type: cell-based; settings: 48 hrs
Protocol: To confirm such findings by an independent method, cell death-inducing potency (cytotoxic efficacy) of DFO and compound 2 have been tested via annexin V/PI staining commonly used as a measure of apoptotic/necrotic cell death. Briefly, cells were seeded in 12-well plate at 100,000 per well, incubated with the selected compounds for 48 hours, then floating cells were spun, adherent cells trypsinized and spun as well followed by the staining with AnnexinV-FITC and PI probes. Cells were then washed with PBS and measured via Fluorescence Activated Sorter.
Since compound 2 is an iron chelator, we have evaluated the effect of pretreating compound 2 with iron. at a 1:1 ratio by using the Annexin V/PI staining as in example 7.

MCF7 cells = experiment: OCR and ECAR, Seahorse instrument; assay type: cell-based, human; settings: 1 hour incubation
Excerpt: Application of compound 2 leads to marked inhibition of cellular respiration as evidenced by two independent methods: the Oxygraph instrument (Rohlenova, K., Sachaphibulkij, K., Stursa, J., Bezawork-Geleta, A., Blecha, J., Endaya, B., Werner, L., Cerny, J., Zobalova, R., Goodwin, J., Spacek, T., Alizadeh, P. E., Yan, B., Nguyen, M. N., Vondrusova, M., Sobol, M., Jezek, P., Hozak, P., Truksa, J., Rohlena, J., Dong, L. F., & Neuzil, J. (2017) Selective Disruption of Respiratory Supercomplexes as a New Strategy to Suppress Her2high Breast Cancer. Antioxid. Redox. Signal., 26, 84-103) (Table 6) and Seahorse instrument (Table 7). For Seahorse analysis, 20.000 or 30.000 cells were seeded in 96 well plates and incubated with compound 2 for 1 hour. Afterwards, oxygen consumption rate (OCR) and extracellular acidification rate (ECAR) were measured in three cycles of 3 minutes preceded by 3 minutes of mixing, using a Seahorse XFe96 analyzer (Agilent). Results express the mean values of the three cycles.

non malignant cells (BJ) = experiment: cellular proliferation in real time, Xcelligence technology; assay type: cell-based, human
Protocol: The ability of compound 2 to affect the proliferation and cell death induction in real time was monitored by the Xcelligence technology that detects changes in electrical impedance related to the cell number. In brief, special 16-well e-plates containing gold electrodes were filled with medium, blank values were recorded, and then 5.000 cells per well were seeded in the plate and let to attach for 2 hours, followed by the addition of compounds. The electrical impedance was then monitored over time in real-time every 15 minutes. In this case a line is drawn that reflects the cell number over time. […] We have seen a clear inhibition of proliferation with compound 2 at 1 μM, complete block of proliferation at 2 μM concentration, while the cytotoxic effect is seen at 5 μM (Table 9).

[1] = test system: human mammary gland cancer cell line MDA-MB-231; experiment: dose-effect relationship of drugs and mixtures, crystal violet assay, Median-Effect / Combination index; assay type: cell-based; settings: MDA-MB-231, crystal violet, 48 hours
Protocol: (§1) The potentiation of cytotoxic effect of compound 2 in combination with several cytostatics was evaluated. The dose-effect relationship of individual drugs and mixtures of compound 2 with paclitaxel, cis Pt (cis-platin), doxorubicin and fluorouracil was determined on human mammary gland cancer cell line MDA-MB-231 and pancreatic cell line BxPC3 by means of crystal violet assay. The linearized Median-Effect Plot of dose response line provided both parameters (IC50; trend line m(slope) value) of Median-Effect Equation for individual and combination treatment [ref: Theoretical basis, experimental design, and computerized simulation of synergism and antagonism in drug combination studies; Ting-Chao Chou: Pharmacol Rev. 58(3), 2006, 621-81; Erratum in Pharmacol Rev. 2007; 59(1), 124]:
(§2) Potentiation of combination effect of compound 2 was expressed for concentrations IC50, IC75, IC90, IC95 by calculation of Combination index (CI) applying Combination Index Theorem for mutually exclusive drugs. Overall CI was expressed by means of weighted average of IC50, IC75, IC90, IC95 [ref: Quantitative analysis of dose-effect relationships: the combined effects of multiple drugs or enzyme inhibitors; Ting-Chao Chou, Paul Talalay: Advances in Enzyme Regulation, Volume 22, 1984, Pages 27-55]: […]

[2] = test system: pancreatic cell line BxPC3; experiment: as above; assay type: cell-based
Protocol: as §1, §2

## CC(=O)N(O)CCCCCNC(=O)CCC(=O)N(O)CCCCCNC(=O)CCC(=O)N(O)CCCCCN(CCCCCCCCCC[P+](c1ccccc1)(c1ccccc1)c1ccccc1)CCCCCCCCCC[P+](c1ccccc1)(c1ccccc1)c1ccccc1.[Cl-].[Cl-] [Compound 2, Triphenyl(3,14,25-trihydroxy-2,10,13,21,24-pentaoxo-31-(10-(triphenylphosphonio)decyl)-3,9,14,20,25,31-hexaazahentetracontan-41-yl)phosphonium chloride]
BT474 cells; BJ vs BT474, 48 hours
  Selectivity index (IC50 non-malignant/IC50 malignant): 4.33
BT474 cells; BT474, 48 hours, crystal violet, read-out: IC50 cellular viability
  IC50: 3.3 µM
BT474 cells; BT474 Parental, read-out: IC50 crystal violet
  IC50: 3.3 µM
SK-OV-3 cells
  IC50: 5.1 µM
T47D cells; 5 μM
  mean percentage of dead cells (AnnexinV/PI): 38.3 (5.8) %
T47D cells; 10 μM
  mean percentage of dead cells (AnnexinV/PI): 41.2 (3.1) %
T47D cells; 20 μM
  mean percentage of dead cells (AnnexinV/PI): 93.6 (1.3) %
MCF7 cells; MCF7, 5 μM
  Oxygen consumption rate (OCR): 15.4 pmol*min^−1 10.000 cells^−1
  extracellular acidification rate (ECAR): 9.69 mpH*min^−1 10.000 cells^−1
MCF7 cells; MCF7, 10 μM
  Oxygen consumption rate (OCR): 9.6 pmol*min^−1 10.000 cells^−1
  extracellular acidification rate (ECAR): 8.2 mpH*min^−1 10.000 cells^−1
Non malignant cells (BJ); 0-15 h, 1 μM
  slope of the line (relative number of cells in relation to time): 1.14
Non malignant cells (BJ); 0-15 h, 2 μM
  slope of the line (relative number of cells in relation to time): 1.07
Non malignant cells (BJ); 0-15 h, 5 μM
  slope of the line (relative number of cells in relation to time): 0.83
Non malignant cells (BJ); 0-36 h, 1 μM
  slope of the line (relative number of cells in relation to time): 1.08
Non malignant cells (BJ); 0-36 h, 2 μM
  slope of the line (relative number of cells in relation to time): 0.90
Non malignant cells (BJ); 0-36 h, 5 μM
  slope of the line (relative number of cells in relation to time): 0.47
Non malignant cells (BJ); Xcelligence, 5 μM
  effect on cellular proliferation of non-malignant BJ cells, in words: very mild and statistically non-significant effect
[1]; Homo sapiens, Chou-Talalay method, read-out: Median-Effect Plot parameter IC50
  IC50: 5.89 µM
[1]
  Median-Effect Plot parameter m (slope): 1.2778
[2]; 48 hours
  Median-Effect Plot parameter m (slope): 1.57
[2]; Homo sapiens, BXPC-3, 48 h, read-out: Median-Effect Plot parameter IC50
  IC50: 4.5 µM
